Reference: patent publication US5817651A, “3-arylcarbonyl-1-(C-attached-N-heteryl)-1H-indoles” (Sanofi, priority 1997, dated 1998)
Structures can show the parent of a compound that is named as a salt. Where two headings read alike, the source gives them in different places.

Assays:
Assay type in all cases: in vivo
[1] = test system: acetylcholine-induced abdominal constriction; experiment: acetylcholine-induced abdominal constriction test (ACH); conditions: mice; for ED50 / inhibition in vivo at 100 mg/kg: Mus musculus; for inhibition in vivo at 100 mg/kg: dose level 100, read-out: ACH percent inhibition at dose 100
From the text: J. Pharmacol. Chemotherap. 32, 295 (1968); a modification of the anti-bradykinin test, which is also a primary analgesic screening procedure, described by Berkowitz et al., J. Pharmacol. Exptl. Therap. 177, 500-508 (1971), Blane et al., J. Pharm. Pharmacol. 19, 367-373 (1967), Botha et al., Eur. J. Pharmacol. 6, 312-321 (1969) and Deffenu et al., J. Pharm. Pharmacol. 18, 135 (1966); and the Randall-Selitto analgesic test described by Randall and Selitto, Arch. Int. Pharmacodyn., 111, 409-419 (1957).
Data in the developing adjuvant arthritis (AA) and plasma fibronectin (FN) assays are expressed as percent inhibition, i.e. inhibition of non-injected paw inflammation (NIP) and injected paw (RPV) and lowering of plasma fibronectin, the asterisks * and ** indicating statistical significance at the p<0.01 and p<0.05 levels, respectively. […] Non-statistically significant results are recorded as "------ ". In the acetylcholine-induced abdominal constriction test, the test compounds were administered either as suspensions in gum tragacanth (GT) or as aqueous solutions prepared by addition of just sufficient dilute aqueous methanesulfonic acid (MS) or dilute aqueous lactic acid (LA) to dissolve the compound. The compounds are identified by the example number above where their preparations are described. All data in the anti-bradykinin, rat writhing and Randall-Selitto tests were obtained on oral administration.

[2] = test system: adjuvant induced arthritis; experiment: developing adjuvant arthritis (AA) assay; set-up: key: Non-statistically significant results are recorded as "------ "; conditions: arthritic rats; printed * = p<0.01, ** = p<0.05
Method: Antirheumatic and anti-inflammatory activities of the compounds of the invention were determined using the developing adjuvant arthritis assay in rats and the plasma fibronectin assay in arthritic rats. The developing adjuvant arthritis assay was used in conjunction with the plasma fibronectin assay as a primary screening method in the evaluation of compounds for potential use as disease modifying anti-rheumatic drugs. The procedure used to induce arthritis in rats is a modification of the methods published by Pearson, J. Chron. Dis. 16, 863-874 (1973) and by Glenn et al., Amer. J. Vet. Res. 1180-1193 (1965). Adjuvant induced arthritis bears many of the traits of rheumatoid arthritis. It is a chronic, progressive, deforming arthritis of the peripheral joints, with a primary mononuclear cell response consisting of bone and joint space invasion by pannus. In order to detect disease modifying anti-rheumatic drug activity, drug treatment is started before the disease has become irrevocably established. Since such drugs are not designed to be administered prophylactically, drug treatment of adjuvant arthritis is initiated at a time when the disease is developing but is not yet irreversible. Animals develop significant systemic arthritic disease which can be measured by swelling of the non-injected rear paw (NIP) 15 to 20 days following an initial injection on day 1 of complete Freund's adjuvant into the right hindfoot paw.
(§1) Data in the developing adjuvant arthritis (AA) and plasma fibronectin (FN) assays are expressed as percent inhibition, i.e. inhibition of non-injected paw inflammation (NIP) and injected paw (RPV) and lowering of plasma fibronectin, the asterisks * and ** indicating statistical significance at the p<0.01 and p<0.05 levels, respectively. Compounds are considered active at p<0.05 level. Non-statistically significant results are recorded as "------ ". In the acetylcholine-induced abdominal constriction test, the test compounds were administered either as suspensions in gum tragacanth (GT) or as aqueous solutions prepared by addition of just sufficient dilute aqueous methanesulfonic acid (MS) or dilute aqueous lactic acid (LA) to dissolve the compound. The compounds are identified by the example number above where their preparations are described. All data in the anti-bradykinin, rat writhing and Randall-Selitto tests were obtained on oral administration.

[3] = test system: acetic acid-induced writhing; experiment: acetic acid-induced writhing assay in the rat (RW); conditions: oral administration
Method: as §1

[4] = Table 9, Examples, no route marked in the cell, read-out: ACH ED50

CC(C1CCCNC1)n1cc(C(=O)c2ccccc2F)c2ccccc21 (stereo not drawn) [Example 4E]
ED50 [1, 4]: 43 mg/kg

COc1ccc(C(=O)c2c(C)n(CC3CN(C)CCS3)c3ccccc23)cc1 (stereo not drawn) [Example 3C]
ED50 [1, 4]: 30 mg/kg

COc1ccc(C(=O)c2c(C)n(C3CCN(C)CC3)c3ccccc23)cc1 [Example 1B]
NIP: percent inhibition of non-injected paw inflammation [2]: 88% | RPV: percent inhibition of injected paw [2]: 65% | ED50 [1, 4]: 69 mg/kg

CC(C1CCCNC1)n1cc(C(=O)c2ccccc2F)c2ccccc21 (stereo not drawn) [Example 4H]
ED50 ([3]; Rattus norvegicus, po): 4 mg/kg | ACH ED50 ([1]; Table 9, Examples, no route marked in the cell): 25 mg/kg

COc1ccc(C(=O)c2c(C)n(CC3CCCN(Cc4ccccc4)C3)c3ccccc23)cc1 (stereo not drawn) [Example 2T]
NIP: percent inhibition of non-injected paw inflammation [2]: 92% | RPV: percent inhibition of injected paw [2]: 68% | ACH percent inhibition at dose 300 ([1]; Table 9, dose level 300): 20%

COc1ccc(C(=O)c2c(C)n(CC3CCCN3C)c3ccccc23)cc1 (single isomer, unassigned) [2E(1), (1)1-(1-methyl-2-pyrrolidinylmethyl)-2-methyl-3-(4-methoxybenzoyl)-1H-indle hydrochloride]
RW ED50 ([3]; hydrochloride): 13 mg/kg | ACH ED50 ([1]; Table 9, Examples, no route marked in the cell, hydrochloride): 35 mg/kg

CCc1ccc(C(=O)c2c(C)n(CC3CCCN(C)C3)c3ccccc23)cc1 (stereo not drawn) [Example 2N]
ED50 [1, 4]: 46 mg/kg

COc1ccc(C(=O)c2cn(CCC3CCCN3C)c3ccccc23)cc1 (stereo not drawn) [Example 2S]
NIP: percent inhibition of non-injected paw inflammation [2]: 33% | RPV: percent inhibition of injected paw [2]: 21% | ED50 [1, 4]: 50 mg/kg

COc1ccc(C(=O)c2cn(CC3CCCN(C)C3)c3ccc(F)cc23)cc1 (stereo not drawn) [Example 1H]
NIP: percent inhibition of non-injected paw inflammation [2]: 92% | RPV: percent inhibition of injected paw [2]: 63% | inhibition in vivo at 100 mg/kg ([1]; Table 9): 20%

COc1ccc(C(=O)c2c(C)n(C3CCNC3)c3ccccc23)cc1 (stereo not drawn) [Example 8B]
ED50 [1, 4]: 29 mg/kg

Cc1c(C(=O)c2cccc(F)c2)c2ccccc2n1CC1CCCN(C)C1 (stereo not drawn) [Example 1O]
ED50 [1, 4]: 71 mg/kg

CN1CCCC(n2cc(C(=O)c3ccccc3F)c3ccccc32)C1 (stereo not drawn) [Example 4D]
NIP: percent inhibition of non-injected paw inflammation [2]: 80% | RPV: percent inhibition of injected paw [2]: -- | ACH percent inhibition at dose 10 ([1]; Table 9, dose level 10): 65% | ACH percent inhibition at dose 30 ([1]; Table 9, dose level 30): 50%

CN1CCCC(Cn2cc(C(=O)c3ccccc3)c3ccccc32)C1 (stereo not drawn) [Example 1Q]
ED50 [1, 4]: 45 mg/kg

Cc1c(C(=O)c2ccc(O)cc2)c2ccccc2n1CC1CN(C)CCO1 (stereo not drawn) [Example 1D]
inhibition in vivo at 100 mg/kg ([1]; Table 9): 10%

CCN1CCCC1Cn1c(C)c(C(=O)c2ccc(OC)cc2)c2ccccc21 (stereo not drawn) [Example 2Y]
NIP: percent inhibition of non-injected paw inflammation [2]: 46% | RPV: percent inhibition of injected paw [2]: 15% | ED50 [1, 4]: 43 mg/kg

Cc1cc2ccccc2n1CC1CN(C)CCO1 (racemic) [Preparation 1A, 1-[(4-methyl-2-morpholinyl)methyl]-2-methyl-1H-indole]
inhibition in vivo at 100 mg/kg ([1]; Table 10, Prepn. No.): 10%

COc1ccc(C(=O)c2c(C)n(C3CCN(Cc4ccccc4)C3)c3ccccc23)cc1 (stereo not drawn) [Example 1W]
inhibition in vivo at 100 mg/kg ([1]; Table 9): 35%

COc1ccc(C(=O)c2c(C)n(C[C@@H]3CC[C@@H](C)N3Cc3ccccc3)c3ccccc23)cc1 (relative stereo) [Example 1AE]
inhibition in vivo at 100 mg/kg ([1]; Table 9): 30%

COc1ccc(C(=O)c2c(C)n(CC3C[S+]([O-])CCN3C)c3ccccc23)cc1 (stereo not drawn) [Example 6B, 2-methyl-3-(4-methoxybenzoyl)-1-[(4-methyl-3-thiomorpholinyl)methyl]-1H-indole-S-oxide]
ED50 [1, 4]: 5 mg/kg

Cc1cc2ccccc2n1CCC1CCCCN1C (stereo not drawn) [Preparation 1Q, 2-methyl-1-[2-(1-methyl-2-piperidinyl)-ethyl]-1H-indole]
inhibition in vivo at 100 mg/kg ([1]; Table 10, Prepn. No.): 30%

COc1ccc(C(=O)c2c(C)n(CC3CCCN3Cc3ccccc3)c3ccccc23)cc1 (stereo not drawn) [Example 1AG]
inhibition in vivo at 100 mg/kg ([1]; Table 9): 0%

COc1ccc(C(=O)c2c(C)n(CCC3CCCN3C)c3ccc(F)cc23)cc1 (stereo not drawn) [Example 2A, 5-fluoro-2-methyl-1-[2-(1-methyl-2-pyrrolidinyl)ethyl]-3-(4-methoxybenzoyl)-1H-indole hydrochloride hemihydrate]
NIP: percent inhibition of non-injected paw inflammation [2]: 86% | RPV: percent inhibition of injected paw [2]: 69% | ED50 [1, 4]: 32 mg/kg

CN1CCCCC(n2cc(C(=O)c3ccccc3F)c3ccccc32)C1 (stereo not drawn) [Example 2AD]
inhibition in vivo at 100 mg/kg ([1]; Table 9): 20%

Cc1c(C(=O)c2ccc([N+](=O)[O-])cc2)c2ccccc2n1CC1CCCN(C)C1 (stereo not drawn) [Example 2AN]
inhibition in vivo at 100 mg/kg ([1]; Table 9): 30%

COc1ccc(C(=O)c2c(C)n(C3CCCN(C)C3)c3ccccc23)cc1 (stereo not drawn) [2AG(b)]
ED50 [1, 4]: 30 mg/kg

COc1ccc(C(=O)c2c(C)n(C3CSCCN(C)C3)c3ccccc23)cc1 (stereo not drawn) [Example 3B]
inhibition in vivo at 100 mg/kg ([1]; Table 9): 60%

CN1CCCCC(n2cc(C(=O)c3cccc4ccccc34)c3ccccc32)C1 (stereo not drawn) [Example 1R]
inhibition in vivo at 100 mg/kg ([1]; Table 9): 20%

COc1ccc(C(=O)c2c(C)n(CC3CN(C(c4ccccc4)c4ccccc4)C3)c3ccccc23)cc1 [Example 2AL]
inhibition in vivo at 100 mg/kg ([1]; Table 9): 20%

Cc1c(C(=O)c2ccccc2F)c2ccccc2n1C[C@@H]1CC[C@@H](C)N1C (relative stereo) [Example 1AD]
ED50 [1, 4]: 34 mg/kg

CN1CCCC(Cn2cc(C(=O)c3ccccc3F)c3ccccc32)C1 (stereo not drawn) [Example 2AA]
ED50 [1, 4]: 65 mg/kg

COc1ccc(C(=O)c2c(C)n(CC3COCCN3C)c3ccccc23)cc1 (stereo not drawn) [Example 10B, 2-methyl-3-(4-methoxybenzoyl)-1-[(4-methyl-3-morpholinyl)methyl]-1H-indole]
ED50 [1, 4]: 29 mg/kg

COc1ccc(C(=O)c2c(C(C)C)n(CC3CCCN(C)C3)c3ccc(F)cc23)cc1 (stereo not drawn) [Example 1S]
NIP: percent inhibition of non-injected paw inflammation [2]: 73% | RPV: percent inhibition of injected paw [2]: 36% | ED50 [1, 4]: 21 mg/kg

COc1cccc(C(=O)c2c(C)n(CC3CCCN(C)C3)c3ccccc23)c1 (stereo not drawn) [Example 1T]
ED50 [1, 4]: 64 mg/kg

COc1ccc(C(=O)c2cn(CCC3CCCN3C)c3ccc(F)cc23)cc1 (stereo not drawn) [Example 2C]
NIP: percent inhibition of non-injected paw inflammation [2]: 55% | RPV: percent inhibition of injected paw [2]: 27% | ED50 [1, 4]: 49 mg/kg

Cc1cc2ccccc2n1CC1CCCN(C)C1.Cl (stereo not drawn) [Preparation 1P, 2-methyl-1-[(1-methyl-3-piperidinyl)methyl]-1H-indole hydrochloride]
ED50 ([1]; iv, Table 10, Prepn. No., i.v., read-out: ACH ED50 (i.v.)): 9.7 mg/kg | ED50 ([1]; po, Table 10, Prepn. No., p.o., read-out: ACH ED50 (p.o.)): 66 mg/kg

CN1CCCC(Cn2ccc3cc(F)ccc32)C1 (stereo not drawn) [Preparation 1D, 1-[(1-methyl-3-piperidinyl)methyl]-5-fluoro-1H-indole]
ED50 ([1]; Table 10, Prepn. No. (intermediates of formula II), no route marked, read-out: ACH ED50): 65 mg/kg

Cc1c(C(=O)c2ccc(Cl)cc2)c2ccccc2n1CC1CCCN(C)C1 (stereo not drawn) [Example 1L]
NIP: percent inhibition of non-injected paw inflammation [2]: 83% | RPV: percent inhibition of injected paw [2]: 60% | ED50 [1, 4]: 62 mg/kg

CCCN1CCCC(Cn2c(C)c(C(=O)c3ccc(OC)cc3)c3ccccc32)C1 (stereo not drawn) [Example 7, 2-methyl-3-(4-methoxybenzoyl)-1-[(1-propyl-3-piperidinyl)methyl]-1H-indolehydrochloride]
ED50 [1, 4]: 18 mg/kg

COc1ccc(C(=O)c2c(C(C)C)n(CC3CCCN(C)C3)c3ccccc23)cc1 (stereo not drawn) [Example 1U]
ED50 [1, 4]: 22 mg/kg
